Source: patent publication US7642249B2, “Dihydrogen phosphate salt of a prostaglandin D2 receptor antagonist” (Aventis Pharmaceuticals Inc., priority 2005, dated 2010)
Converted amounts (≈) assume the structure as drawn. Structures can show the parent of a compound that is named as a salt.

What was measured:
Type in all cases: physicochemical
[1] = Solubility in simulated intestinal fluid under fasted conditions (FaSSIF)
Description: (§1) The dihydrogen phosphate salt has increased aqueous solubility over the free form and the hydrochloride salt. The following chart lists the solubilities of the free form, the hydrochloride salt and the dihydrogen phosphate salt at 25° C. in phosphate buffer (PBS pH 7.4, a mixture of 19% of a 0.1M monobasic sodium phosphate solution and 81% of a 0.1M dibasic sodium phosphate solution) and the solubilities of the free form and the dihydrogen phosphate salt 37° C. in a simulated intestinal fluid under fasted conditions (“FaSSIF”, prepared according to Dressman J. B., Amidon G. L., Reppas C. and Shah V. P., Dissolution testing as a prognostic tool for oral drug absorption: immediate release dosage forms, Pharmaceutical Research: 1998, Vol. 15, No. 1, 11-22).

[2] = Solubility in phosphate buffer (PBS pH 7.4)
Description: as §1

[3] = Dynamic water vapor sorption (DVS) hygroscopicity; details: at 94% relative humidity (RH)
Description: Dynamic Water Vapor Sorption (DVS)
The water sorption profile is determined using a SMS Instruments Dynamic Vapor Sorption Analyzer Model DVS-1 or VTI Instruments Model SGA-100 Dynamic Vapor Sorption Analyzer. RH and weight are calibrated using standards. The dihydrogen phosphate salt is loaded and dried at ≦1% RH for 2.5 hours prior to starting the experiment. The RH is stepped from about 0 to 95% RH. The specimen weight is considered constant at each step when percent mass change is less than 0.005% over a 5-minute interval with a minimum absolute equilibration time of 15 minutes.

Structure (SMILES) | Solubility in FaSSIF (37° C., ug/mL) [1] [µg/mL] | Solubility (PBS pH 7.4, 25° C., μg/mL) [2] [μg/mL] | weight gain during the sorption (DVS) [3] [%]
COc1nc(NCCc2ccc(Cl)cc2Cl)cc(-c2cccc(C(C)(C)C(=O)O)c2)n1 [Free form, 2-(3-{6-[2-(2,4-dichloro-phenyl)-ethylamino]-2-methoxy-pyrimidin-4-yl}-phenyl)-2-methyl-propionic acid] | 14 (≈ 30.4 µM) | <1 | 
COc1nc(NCCc2ccc(Cl)cc2Cl)cc(-c2cccc(C(C)(C)C(=O)O)c2)n1 [Hydrochloride salt, 2-(3-{6-[2-(2,4-dichloro-phenyl)-ethylamino]-2-methoxy-pyrimidin-4-yl}-phenyl)-2-methyl-propionic acid] |  | 5 | 
COc1nc(NCCc2ccc(Cl)cc2Cl)cc(-c2cccc(C(C)(C)C(=O)O)c2)n1 [Dihydrogen phosphate salt, Dihydrogen phosphate salt of 2-(3-{6-[2-(2,4-Dichloro-phenyl)-ethylamino]-2-methoxy-pyrimidin-4-yl}-phenyl)-2-methyl-propionic acid] | 266 | 15 | ~0.9
